Laboratory results: ChEMBL document CHEMBL1201862, “PubChem BioAssay data set” (2004)
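In this assay, cells in 96-well plates receive the compound at five concentrations for 48 hours. Endpoints are linearly interpolated between the surrounding concentrations. Abbreviation: GI50, concentration required for 50% inhibition of growth.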 Activity calls are given as the source filed them. Cut-off read from the data, not from the text of the source: active = GI50 up to about 1.1 µM and inactive = higher.

Legend:
Experiment in all cases: NCI tumour cell line growth inhibition, 48 h
[1] = tested on: COLO 205
[2] = tested on: SW-620
[3] = tested on: IGROV-1
[4] = tested on: M19-MEL
[5] = tested on: KM12
[6] = tested on: HCT-116
[7] = tested on: NCI-H23
[8] = tested on: HT-29
[9] = tested on: CAKI-1
[10] = tested on: SK-MEL-28
[11] = tested on: DLD-1
[12] = tested on: OVCAR-5
[13] = tested on: MOLT-4
[14] = tested on: SK-MEL-5
[15] = tested on: NCI-H460
[16] = tested on: SNB-19
[17] = tested on: UACC-257
[18] = tested on: A498
[19] = tested on: SN12C
[20] = tested on: SF-295
[21] = tested on: M14
[22] = tested on: A549
[23] = tested on: SK-OV-3
[24] = tested on: RPMI-8226
[25] = tested on: KM-20L2
[26] = tested on: HOP-62
[27] = tested on: 786-0
[28] = tested on: OVCAR-4
[29] = tested on: SF-539
[30] = tested on: DMS-114
[31] = tested on: UO-31
[32] = tested on: HOP-92
[33] = tested on: SF-268
[34] = tested on: K562
[35] = tested on: UACC-62
[36] = tested on: NCI-H522
[37] = tested on: EKVX
[38] = tested on: HL-60
[39] = tested on: CCRF-CEM
[40] = tested on: ACHN
[41] = tested on: TK-10
[42] = tested on: SR
[43] = tested on: SK-MEL-2
[44] = tested on: HCC 2998
[45] = tested on: OVCAR-8
[46] = tested on: Malme-3M
[47] = tested on: RXF 393
[48] = tested on: OVCAR-3
[49] = tested on: DU-145
[50] = tested on: T47D
[51] = tested on: MDA-N
[52] = tested on: SNB-75
[53] = tested on: PC-3
[54] = tested on: NCI/ADR-RES
[55] = tested on: Hs-578T
[56] = tested on: MDA-MB-231
[57] = tested on: MDA-MB-435
[58] = tested on: MCF7
[59] = tested on: NCI-H226
[60] = tested on: BT-549
[61] = tested on: LOX IMVI
[62] = tested on: U-251
[63] = tested on: HCT-15

With CC(=O)Nc1ccc(S(=O)(=O)NN(C)S(=O)(=O)c2ccc(C)cc2)cc1 the GI50 [1] was > 100 µM (inactive), the GI50 [2] was > 100 µM (inactive) and the GI50 [3] was > 100 µM (inactive). For the same compound, the GI50 [4] was > 100 µM (inactive), the GI50 [5] was > 100 µM (inactive) and the GI50 [6] was > 100 µM (inactive). The GI50 [7] was > 100 µM (inactive), the GI50 [8] was > 100 µM (inactive) and the GI50 [9] was > 100 µM (inactive). The GI50 [10] was > 100 µM (inactive), the GI50 [11] was > 100 µM (inactive) and the GI50 [12] was > 100 µM (inactive). The GI50 [13] was > 100 µM (inactive), the GI50 [14] was > 100 µM (inactive) and the GI50 [15] was > 100 µM (inactive). For the same compound, the GI50 [16] was > 100 µM (inactive), the GI50 [17] was > 100 µM (inactive) and the GI50 [18] was > 100 µM (inactive). For the same compound, the GI50 [19] was > 100 µM (inactive), the GI50 [20] was > 100 µM (inactive) and the GI50 [21] was > 100 µM (inactive). For the same compound, the GI50 [22] was > 100 µM (inactive), the GI50 [23] was > 100 µM (inactive) and the GI50 [24] was > 100 µM (inactive). For the same compound, the GI50 [25] was > 100 µM (inactive), the GI50 [26] was > 100 µM (inactive) and the GI50 [27] was > 100 µM (inactive). The GI50 [28] was > 100 µM (inactive), the GI50 [29] was > 100 µM (inactive) and the GI50 [30] was > 100 µM (inactive). The GI50 [31] was > 100 µM (inactive), the GI50 [32] was > 100 µM (inactive) and the GI50 [33] was > 100 µM (inactive). For the same compound, the GI50 [34] was > 100 µM (inactive), the GI50 [35] was > 100 µM (inactive) and the GI50 [36] was > 100 µM (inactive). For the same compound, the GI50 [37] was > 100 µM (inactive), the GI50 [38] was > 100 µM (inactive) and the GI50 [39] was > 100 µM (inactive). For the same compound, the GI50 [40] was > 100 µM (inactive), the GI50 [41] was > 100 µM (inactive) and the GI50 [42] was > 100 µM (inactive). The GI50 [43] was > 100 µM (inactive), the GI50 [44] was > 100 µM (inactive) and the GI50 [45] was > 100 µM (inactive). The GI50 [46] was > 100 µM (inactive), the GI50 [47] was > 100 µM (inactive) and the GI50 [48] was > 100 µM (inactive).

For C/C=C/[C@@H](C(=O)OC)N1C(=O)c2ccccc2[C@H]1O, the GI50 [1] was > 100 µM (inactive), the GI50 [2] was > 100 µM (inactive) and the GI50 [3] was > 100 µM (inactive). The GI50 [5] was > 100 µM (inactive), the GI50 [6] was > 100 µM (inactive) and the GI50 [7] was > 100 µM (inactive). The GI50 [49] was > 100 µM (inactive), the GI50 [8] was > 100 µM (inactive) and the GI50 [9] was > 100 µM (inactive). The GI50 [10] was > 100 µM (inactive), the GI50 [50] was > 100 µM (inactive) and the GI50 [12] was > 100 µM (inactive). For the same compound, the GI50 [51] was > 100 µM (inactive), the GI50 [13] was > 100 µM (inactive) and the GI50 [52] was > 100 µM (inactive). The GI50 [53] was > 100 µM (inactive), the GI50 [14] was > 100 µM (inactive) and the GI50 [54] was > 100 µM (inactive). The GI50 [15] was > 100 µM (inactive), the GI50 [16] was > 100 µM (inactive) and the GI50 [55] was > 100 µM (inactive). The GI50 [17] was > 100 µM (inactive), the GI50 [18] was > 100 µM (inactive) and the GI50 [19] was > 100 µM (inactive). For the same compound, the GI50 [56] was > 100 µM (inactive), the GI50 [20] was > 100 µM (inactive) and the GI50 [21] was > 100 µM (inactive). For the same compound, the GI50 [57] was > 100 µM (inactive), the GI50 [22] was > 100 µM (inactive) and the GI50 [23] was > 100 µM (inactive). For the same compound, the GI50 [24] was > 100 µM (inactive), the GI50 [26] was > 100 µM (inactive) and the GI50 [27] was > 100 µM (inactive). For the same compound, the GI50 [28] was > 100 µM (inactive), the GI50 [29] was > 100 µM (inactive) and the GI50 [31] was > 100 µM (inactive). The GI50 [32] was > 100 µM (inactive), the GI50 [33] was > 100 µM (inactive) and the GI50 [34] was > 100 µM (inactive). For the same compound, the GI50 [35] was > 100 µM (inactive), the GI50 [58] was > 100 µM (inactive) and the GI50 [59] was > 100 µM (inactive). For the same compound, the GI50 [36] was > 100 µM (inactive), the GI50 [37] was > 100 µM (inactive) and the GI50 [38] was > 100 µM (inactive). For the same compound, the GI50 [60] was > 100 µM (inactive), the GI50 [61] was > 100 µM (inactive) and the GI50 [62] was > 100 µM (inactive). For the same compound, the GI50 [39] was > 100 µM (inactive), the GI50 [40] was > 100 µM (inactive) and the GI50 [41] was > 100 µM (inactive). The GI50 [42] was > 100 µM (inactive), the GI50 [43] was > 100 µM (inactive) and the GI50 [44] was > 100 µM (inactive). The GI50 [45] was > 100 µM (inactive), the GI50 [63] was greater than 100 µM and the GI50 [46] was > 100 µM (inactive). The GI50 [47] was > 100 µM (inactive) and the GI50 [48] was > 100 µM (inactive).
